Measurements taken from patent publication US6953779B2, “Melanocortin receptor antagonists and modulations of melanocortin receptor activity” (The Regents of the University of California, priority 1998, dated 2005).
Square brackets hold non-standard residues; d marks the D form. Peptide text beside a SMILES is read from it. * marks the point of attachment. d2Nal = N[C@H](Cc1ccc2ccccc2c1)C(=O)O; Benzoyl(3-OMe) = COc1cccc(C(=O)*)c1; Benzoyl(4-OMe) = COc1ccc(C(=O)*)cc1; d2Thi = N[C@H](Cc1cccs1)C(=O)O

test system: heat-induced edema in the anesthetized rat's paw; assay: Suppression of heat-induced edema in the anesthetized rat's paw (anti-inflammatory); format: in vivo; details: i.v.; suppression of heat-induced edema in the anesthetized rat's paw

SMILES	Anti-Inflammatory ED50
CC[C@H](C)[C@H](NC(=O)[C@@H](Cc1ccc2ccccc2c1)NC(=O)[C@H](CC(C)C)NC(=O)[C@H](CC(C)C)NC(=O)[C@H](CCCCN)NC(=O)[C@H](CCCNC(=N)N)NC(=O)c1ccc(OC)cc1)C(=O)N[C@H](CC(C)C)C(N)=O [S-114, p-anisoyl-Arg-Lys-Leu-Leu-D-Nal-Ile-D-Leu-NH2] ({Benzoyl(4-OMe)}-RKLL[d2Nal]I[dL]-NH2)	0.38 (0.16-0.91) mg/kg
CC[C@H](C)[C@H](NC(=O)[C@@H](Cc1ccc(O)cc1)NC(=O)[C@H](CC(C)C)NC(=O)[C@H](CC(C)C)NC(=O)[C@H](CCCCN)NC(=O)[C@H](CCCNC(=N)N)NC(=O)c1ccc(OC)cc1)C(=O)N[C@H](CC(C)C)C(N)=O [S-116, p-anisoyl-Arg-Lys-Leu-Leu-D-Tyr-Ile-D-Leu-NH2] ({Benzoyl(4-OMe)}-RKLL[dY]I[dL]-NH2)	0.080 (0.03-0.20) mg/kg
CC[C@H](C)[C@H](NC(=O)[C@@H](Cc1c[nH]c2ccccc12)NC(=O)[C@H](CC(C)C)NC(=O)[C@H](CC(C)C)NC(=O)[C@H](CCCCN)NC(=O)[C@H](CCCNC(=N)N)NC(=O)c1ccc(OC)cc1)C(=O)N[C@H](CC(C)C)C(N)=O [S-117, p-anisoyl-Arg-Lys-Leu-Leu-D-Trp-Ile-D-Leu-NH2] ({Benzoyl(4-OMe)}-RKLL[dW]I[dL]-NH2)	0.16 (0.050-0.40) mg/kg
CC[C@H](C)[C@H](NC(=O)[C@@H](Cc1cccs1)NC(=O)[C@H](CC(C)C)NC(=O)[C@H](CC(C)C)NC(=O)[C@H](CCCCN)NC(=O)[C@H](C)NC(=O)c1ccc(OC)cc1)C(=O)N[C@H](CC(C)C)C(N)=O [S-118, p-anisoyl-Ala-Lys-Leu-Leu-D-Thi-Ile-D-Leu-NH2] ({Benzoyl(4-OMe)}-AKLL[d2Thi]I[dL]-NH2)	0.035 (0.012-0.10) mg/kg
CC[C@H](C)[C@H](NC(=O)[C@@H](Cc1cccs1)NC(=O)[C@H](CC(C)C)NC(=O)[C@H](C)NC(=O)[C@H](CCCCN)NC(=O)[C@H](CCCNC(=N)N)NC(=O)c1ccc(OC)cc1)C(=O)N[C@H](CC(C)C)C(N)=O [S-160, p-anisoyl-Arg-Lys-Ala-Leu-D-Thi-Ile-D-Leu-NH2] ({Benzoyl(4-OMe)}-RKAL[d2Thi]I[dL]-NH2)	0.18 (0.07-0.49) mg/kg
CC[C@H](C)[C@H](NC(=O)[C@@H](Cc1cccs1)NC(=O)[C@H](CC(C)C)NC(=O)[C@H](CC(C)C)NC(=O)[C@H](CCCCN)NC(=O)[C@H](CCCNC(=N)N)NC(=O)c1ccc(OC)cc1)C(=O)N[C@H](C)C(N)=O [S-162, p-anisoyl-Arg-Lys-Leu-Leu-D-Thi-Ile-D-Ala-NH2] ({Benzoyl(4-OMe)}-RKLL[d2Thi]I[dA]-NH2)	0.24 (0.11-0.50) mg/kg
COc1ccc(C(=O)N[C@@H](CCCNC(=N)N)C(=O)N[C@@H](CCCCN)C(=O)N[C@@H](CC(C)C)C(=O)N[C@@H](CC(C)C)C(=O)N[C@H](Cc2cccs2)C(=O)N[C@@H](C)C(=O)N[C@H](CC(C)C)C(N)=O)cc1 [S-163, p-anisoyl-Arg-Lys-Leu-Leu-D-Thi-Ala-D-Leu-NH2] ({Benzoyl(4-OMe)}-RKLL[d2Thi]A[dL]-NH2)	0.067 (0.030-0.15) mg/kg
CC[C@H](C)[C@H](NC(=O)[C@@H](C)NC(=O)[C@H](CC(C)C)NC(=O)[C@H](CC(C)C)NC(=O)[C@H](CCCCN)NC(=O)[C@H](CCCNC(=N)N)NC(=O)c1ccc(OC)cc1)C(=O)N[C@H](CC(C)C)C(N)=O [S-164, p-anisoyl-Arg-Lys-Leu-Leu-D-Ala-Ile-D-Leu-NH2] ({Benzoyl(4-OMe)}-RKLL[dA]I[dL]-NH2)	0.42 (0.18-0.96) mg/kg
CC[C@H](C)[C@H](NC(=O)[C@@H](Cc1cccs1)NC(=O)[C@H](C)NC(=O)[C@H](CC(C)C)NC(=O)[C@H](CCCCN)NC(=O)[C@H](CCCNC(=N)N)NC(=O)c1ccc(OC)cc1)C(=O)N[C@H](CC(C)C)C(N)=O [S-165, p-anisoyl-Arg-Lys-Leu-Ala-D-Thi-Ile-D-Leu-NH2] ({Benzoyl(4-OMe)}-RKLA[d2Thi]I[dL]-NH2)	0.046 (0.015-0.14) mg/kg
CC[C@H](C)[C@H](NC(=O)[C@@H](Cc1cccs1)NC(=O)[C@H](CC(C)C)NC(=O)[C@H](CC(C)C)NC(=O)[C@H](C)NC(=O)[C@H](CCCNC(=N)N)NC(=O)c1ccc(OC)cc1)C(=O)N[C@H](CC(C)C)C(N)=O [S-166, p-anisoyl-Arg-Ala-Leu-Leu-D-Thi-Ile-D-Leu-NH2] ({Benzoyl(4-OMe)}-RALL[d2Thi]I[dL]-NH2)	>2 mg/kg
CC[C@H](C)[C@H](NC(=O)[C@@H](Cc1cccs1)NC(=O)[C@H](CC(C)C)NC(=O)[C@H](CC(C)C)NC(=O)[C@H](CCCCN)NC(=O)[C@H](C)NC(=O)c1ccc(OC)cc1)C(=O)N[C@H](CC(C)C)C(N)=O [S-167, p-anisoyl-Ala-Lys-Leu-Leu-D-Thi-Ile-D-Leu-NH2] ({Benzoyl(4-OMe)}-AKLL[d2Thi]I[dL]-NH2)	>2 mg/kg

same assay, conditions: in words

SMILES	anti-edema activity
CC[C@H](C)[C@H](NC(=O)[C@@H](CCCNC(=N)N)NC(=O)[C@@H](CCCNC(=N)N)NC(=O)c1ccc(OC)cc1)C(=O)N[C@H](CCCNC(=N)N)C(=O)N1CCC[C@H]1C(=O)N[C@H](CCCCN)C(=O)N[C@H](CC(C)C)C(N)=O [SQW-4, p-anisoyl-D-Arg-D-Arg-Ile-D-Arg-Pro-D-Lys-D-Leu-amide] ({Benzoyl(4-OMe)}-[dR][dR]I[dR]P[dK][dL]-NH2)	active as anti-edema agents
CC[C@H](C)[C@H](NC(=O)[C@H](CCCNC(=N)N)NC(=O)[C@@H](CCCNC(=N)N)NC(=O)c1ccc(OC)cc1)C(=O)N[C@H](CCCNC(=N)N)C(=O)N1CCC[C@H]1C(=O)N[C@H](CCCCN)C(=O)N[C@H](CC(C)C)C(N)=O [SQW-5, p-anisoyl-[D-Arg^6,9, D-Lys^11, D-Leu^12] dynorphin A(6-12)-NH2] ({Benzoyl(4-OMe)}-[dR]RI[dR]P[dK][dL]-NH2)	active as anti-edema agents
CC[C@H](C)[C@H](NC(=O)[C@H](CCCNC(=N)N)NC(=O)[C@H](CCCNC(=N)N)NC(=O)c1cccc(OC)c1)C(=O)N[C@@H](CCCNC(=N)N)C(=O)N1CCC[C@H]1C(=O)N[C@@H](CCCCN)C(=O)N[C@@H](CC(C)C)C(N)=O [SQW-6, m-anisoyl-Arg-Arg-Ile-Arg-Pro-Lys-Leu-amide] ({Benzoyl(3-OMe)}-RRIRPKL-NH2)	active as anti-edema agents

same assay, conditions: suppression of heat-induced edema in the anesthetized rat's paw; i

SMILES	Anti-Inflammatory ED50
CC[C@H](C)[C@H](NC(=O)[C@H](CCCNC(=N)N)NC(=O)[C@H](CCCNC(=N)N)NC(=O)c1ccc(OC)cc1)C(=O)N[C@H](CCCNC(=N)N)C(=O)N1CCC[C@H]1C(=O)N[C@H](CCCCN)C(=O)N[C@H](CC(C)C)C(N)=O [SQW-2, p-anisoyl-Arg-Arg-Ile-D-Arg-Pro-D-Lys-D-Leu-amide] ({Benzoyl(4-OMe)}-RRI[dR]P[dK][dL]-NH2)	0.085 µmol/kg
CC[C@H](C)[C@H](NC(=O)[C@@H](CCCNC(=N)N)NC(=O)[C@H](CCCNC(=N)N)NC(=O)c1ccc(OC)cc1)C(=O)N[C@H](CCCNC(=N)N)C(=O)N1CCC[C@H]1C(=O)N[C@H](CCCCN)C(=O)N[C@H](CC(C)C)C(N)=O [SQW-3, p-anisoyl-Arg-D-Arg-Ile-D-Arg-Pro-D-Lys-D-Leu-amide] ({Benzoyl(4-OMe)}-R[dR]I[dR]P[dK][dL]-NH2)	0.095 µmol/kg
CC[C@H](C)[C@H](NC(=O)[C@@H](CCCNC(=N)N)NC(=O)[C@@H](CCCNC(=N)N)NC(=O)c1ccc(OC)cc1)C(=O)N[C@H](CCCNC(=N)N)C(=O)N1CCC[C@H]1C(=O)N[C@H](CCCCN)C(=O)N[C@H](CC(C)C)C(N)=O [SQW-4, p-anisoyl-D-Arg-D-Arg-Ile-D-Arg-Pro-D-Lys-D-Leu-amide] ({Benzoyl(4-OMe)}-[dR][dR]I[dR]P[dK][dL]-NH2)	0.200 µmol/kg
CC[C@H](C)[C@H](NC(=O)[C@H](CCCNC(=N)N)NC(=O)[C@@H](CCCNC(=N)N)NC(=O)c1ccc(OC)cc1)C(=O)N[C@H](CCCNC(=N)N)C(=O)N1CCC[C@H]1C(=O)N[C@H](CCCCN)C(=O)N[C@H](CC(C)C)C(N)=O [SQW-5, p-anisoyl-[D-Arg^6,9, D-Lys^11, D-Leu^12] dynorphin A(6-12)-NH2] ({Benzoyl(4-OMe)}-[dR]RI[dR]P[dK][dL]-NH2)	0.060 µmol/kg
CC[C@H](C)[C@H](NC(=O)[C@H](CCCNC(=N)N)NC(=O)[C@H](CCCNC(=N)N)NC(=O)c1cccc(OC)c1)C(=O)N[C@@H](CCCNC(=N)N)C(=O)N1CCC[C@H]1C(=O)N[C@@H](CCCCN)C(=O)N[C@@H](CC(C)C)C(N)=O [SQW-6, m-anisoyl-Arg-Arg-Ile-Arg-Pro-Lys-Leu-amide] ({Benzoyl(3-OMe)}-RRIRPKL-NH2)	0.51 µmol/kg
CC[C@H](C)[C@H](NC(=O)[C@H](CCCNC(=N)N)NC(=O)[C@H](C)NC(=O)c1cccc(OC)c1)C(=O)N[C@@H](CCCNC(=N)N)C(=O)N1CCC[C@H]1C(=O)N[C@@H](CCCCN)C(=O)N[C@@H](CC(C)C)C(N)=O [SQW-7, m-anisoyl-Ala-Arg-Ile-Arg-Pro-Lys-Leu-amide] ({Benzoyl(3-OMe)}-ARIRPKL-NH2)	>1 µmol/kg
CC[C@H](C)[C@H](NC(=O)[C@H](C)NC(=O)[C@H](CCCNC(=N)N)NC(=O)c1cccc(OC)c1)C(=O)N[C@@H](CCCNC(=N)N)C(=O)N1CCC[C@H]1C(=O)N[C@@H](CCCCN)C(=O)N[C@@H](CC(C)C)C(N)=O [SQW-8, m-anisoyl-Arg-Ala-Ile-Arg-Pro-Lys-Leu-amide] ({Benzoyl(3-OMe)}-RAIRPKL-NH2)	>1 µmol/kg
COc1cccc(C(=O)N[C@@H](CCCNC(=N)N)C(=O)N[C@@H](CCCNC(=N)N)C(=O)N[C@@H](C)C(=O)N[C@@H](CCCNC(=N)N)C(=O)N2CCC[C@H]2C(=O)N[C@@H](CCCCN)C(=O)N[C@@H](CC(C)C)C(N)=O)c1 [SQW-9, m-anisoyl-Arg-Arg-Ala-Arg-Pro-Lys-Leu-amide] ({Benzoyl(3-OMe)}-RRARPKL-NH2)	0.65 µmol/kg
CC[C@H](C)[C@H](NC(=O)[C@H](CCCNC(=N)N)NC(=O)[C@H](CCCNC(=N)N)NC(=O)c1cccc(OC)c1)C(=O)N[C@@H](C)C(=O)N1CCC[C@H]1C(=O)N[C@@H](CCCCN)C(=O)N[C@@H](CC(C)C)C(N)=O [SQW-10, m-anisoyl-Arg-Arg-Ile-Ala-Pro-Lys-Leu-amide] ({Benzoyl(3-OMe)}-RRIAPKL-NH2)	1.02 µmol/kg
CC[C@H](C)[C@H](NC(=O)[C@H](CCCNC(=N)N)NC(=O)[C@H](CCCNC(=N)N)NC(=O)c1cccc(OC)c1)C(=O)N[C@@H](CCCNC(=N)N)C(=O)N[C@@H](C)C(=O)N[C@@H](CCCCN)C(=O)N[C@@H](CC(C)C)C(N)=O [SQW-11, m-anisoyl-Arg-Arg-Ile-Arg-Ala-Lys-Leu-amide] ({Benzoyl(3-OMe)}-RRIRAKL-NH2)	1.05 µmol/kg
CC[C@H](C)[C@H](NC(=O)[C@H](CCCNC(=N)N)NC(=O)[C@H](CCCNC(=N)N)NC(=O)c1cccc(OC)c1)C(=O)N[C@@H](CCCNC(=N)N)C(=O)N1CCC[C@H]1C(=O)N[C@@H](C)C(=O)N[C@@H](CC(C)C)C(N)=O [SQW-12, m-anisoyl-Arg-Arg-Ile-Arg-Pro-Ala-Leu-amide] ({Benzoyl(3-OMe)}-RRIRPAL-NH2)	0.98 µmol/kg
